The subject of experiment [1] is EphB2. In words: EphB2 phosphorylation in mouse brain after dosing (immunoprecipitation/immunoblot). The settings on record: 4 days. The format is in vivo. The procedure:
(§1) Wild-type mice aged 10-12 weeks were IP injected every 12 hr for four days with vehicle (PBS) or 10 mg/kg of 2×·HCl salt forms of A20 (in PBS), A20-I (in PBS), or 3511-I, in 94% PBS/6% DMSO) for a total of 8 injections. Exactly 2 hr after final injection of A20 chemical, brains were dissected and frozen at −80 °C. Whole brain protein lysates were then prepared in a Dounce homogenizer using 5 ml PLC lysis buffer, and 1 ml of lysate was used for immunoprecipitation (IP) with 1 μg goat anti-EphB2 antibody, followed by immunoblot (IB) analysis with goat anti-EphB2, rabbit anti-phosphoEphB1/B2 (pEphB1/B2), and mouse anti-EphrinB2 antibodies using appropriate HRP conjugated secondary antibodies and chemiluminescent detection methods.
(§2) FIG. 79A depicts an illustrative immunoblot showing expression of EphB2, phospho-EphB1/B2, and EphrinB2 (co-IP) in the mouse brains. […] The level of co-immunoprecipitated EphrinB2 from the brains of A20 chemical injected animals was generally lower as indicated by fainter bands. FIGS. 79B and 79C show quantification of band intensities (number of photons detected) to obtain ratios of pEphB/EphB2 as a measure of EphB2 receptor activation levels (FIG. 79B) and ratios of EphrinB2/EphB2 as a measure of how much EphrinB2 is co-immunoprecipitated with the EphB2 receptor (FIG. 79C).
Whole brain protein lysates were prepared from wild-type mice either oral dosed (PO) or injected (IP) for 4 days with vehicle (PBS) or 20 mg/kg of 2×·HCl salt drugs of A20 or A20-I every 12 hr, with last ([…]) dose staggered such that brain dissections happened 2 hr after final drug dosing. EphB2 was immunoprecipitated from 1 ml of protein lysate using 1 μg of goat anti-EphB2 antibodies and then precipitated proteins immunoblotted with goat anti-EphB2, rabbit anti-pTyr1000, and mouse 4G10 antibodies using appropriate HRP conjugated secondary antibodies and chemiluminescent detection methods.
The pTry1000 and 4G10 immunoblots (FIG. 80B and FIG. 80C, respectively), which both recognize tyrosine phosphorylated proteins and are readouts for the activated EphB2 tyrosine kinase catalytic domain, both show strong tyrosine phosphorylation of the receptor in 3 of 4 vehicle (V) control lanes. […] The results shown here also highlight our finding that when EphB2 is tyrosine phosphorylated and catalytically activate in the intact brain, the protein migrates much slower in the SDS-PAGE gels with apparent migration in distinct bands-220-260 kDa (green arrows in FIGS. 80B and 80C), as opposed to the typical migration of unphosphorylated EphB2 protein at 125 kDa (black arrow in FIG. 80A).

The target of experiment [2] is T1, EphB2-EphrinB2 (Mus musculus, UniProt P54763).
T1 construct: Whole brain protein lysates were then prepared in a Dounce homogenizer; from tissue; host or cells: brain of wild-type mice
T1 sequence (P54763 19-986): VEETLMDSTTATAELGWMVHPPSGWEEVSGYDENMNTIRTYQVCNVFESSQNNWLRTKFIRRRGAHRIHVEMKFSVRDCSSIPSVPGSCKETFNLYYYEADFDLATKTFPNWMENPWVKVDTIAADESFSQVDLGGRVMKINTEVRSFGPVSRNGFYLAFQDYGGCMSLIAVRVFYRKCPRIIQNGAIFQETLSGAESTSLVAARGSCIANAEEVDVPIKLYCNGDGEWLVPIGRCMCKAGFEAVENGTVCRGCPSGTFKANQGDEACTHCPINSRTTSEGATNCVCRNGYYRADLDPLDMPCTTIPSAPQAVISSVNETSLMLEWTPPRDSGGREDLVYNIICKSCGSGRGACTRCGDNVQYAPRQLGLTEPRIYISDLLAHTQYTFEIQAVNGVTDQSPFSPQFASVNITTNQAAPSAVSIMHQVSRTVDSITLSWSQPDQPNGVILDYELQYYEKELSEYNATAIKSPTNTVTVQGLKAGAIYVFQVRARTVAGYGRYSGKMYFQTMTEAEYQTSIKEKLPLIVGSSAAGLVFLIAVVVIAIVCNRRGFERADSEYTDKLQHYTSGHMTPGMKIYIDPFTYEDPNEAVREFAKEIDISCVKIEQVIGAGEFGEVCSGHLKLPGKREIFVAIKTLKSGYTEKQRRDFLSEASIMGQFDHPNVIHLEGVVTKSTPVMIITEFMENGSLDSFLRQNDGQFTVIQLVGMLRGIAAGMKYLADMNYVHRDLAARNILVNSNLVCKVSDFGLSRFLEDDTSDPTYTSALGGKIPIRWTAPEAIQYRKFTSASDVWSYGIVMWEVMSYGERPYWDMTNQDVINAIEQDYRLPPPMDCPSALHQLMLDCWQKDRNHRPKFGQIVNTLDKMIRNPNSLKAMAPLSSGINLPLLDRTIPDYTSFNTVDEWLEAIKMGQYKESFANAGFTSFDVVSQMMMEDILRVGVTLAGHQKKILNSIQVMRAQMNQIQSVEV
The experiment in a line: EphrinB2 co-immunoprecipitation with EphB2 in mouse brain after dosing. The format is in vivo. The conditions noted are these: IP 10 mg/kg every 12 hr, 4 days. The procedure:
as §1, §2

On to `Oc1c(Br)cc(CN2CCOCC2)c2cccnc12` [Compound 5, 7-bromo-5-(morpholinomethyl)quinolin-8-ol], for which the “activated phosphorylated EphB2 in brain” value is “generally lower level of activated phosphorylated EphB2 in the brain” in experiment [1] (IP 10 mg/kg every 12 hr) and “lower levels of activated phosphorylated EphB2 in the brain” in experiment [1] (PO or IP 20 mg/kg every 12 hr). In addition, the “association of EphrinB2 with EphB2 in brain” value (from here on “association of EphrinB2”) in experiment [2] is “reduced level of association with EphrinB2”.
Turning to `Oc1c(I)cc(CN2CCOCC2)c2cccnc12` [Compound 7, 7-iodo-5-(morpholinomethyl)quinolin-8-ol], the “activated phosphorylated EphB2 in brain” value is reported as “generally lower level of activated phosphorylated EphB2 in the brain” in experiment [1] (IP 10 mg/kg every 12 hr) and “lower levels of activated phosphorylated EphB2 in the brain” in experiment [1] (PO or IP 20 mg/kg every 12 hr). For the same compound, the “association of EphrinB2” value in experiment [2] is given as “reduced level of association with EphrinB2”.
Consider `COc1ccccc1N1CCN(Cc2cc(I)c(O)c3ncccc23)CC1` [Compound 71, 7-iodo-5-((4-(2-methoxyphenyl)piperazin-1-yl)methyl)quinolin-8-ol], for which the “activated phosphorylated EphB2 in brain” value in experiment [1] (IP 10 mg/kg every 12 hr) is listed as “generally lower level of activated phosphorylated EphB2 in the brain”. The “association of EphrinB2” value in experiment [2] is reported as “reduced level of association with EphrinB2”.

Source of the values: patent publication US20260374739A1, “SMALL MOLECULAR WEIGHT CHEMICAL COMPOUND TO ANTAGONIZE EPH-EPHRIN TETRAMERIZATION AND INHIBIT BIDIRECTIONAL SIGNALING” (THE BOARD OF REGENTS OF THE UNIVERSITY OF TEXAS SYSTEM, priority 2022, published 2026).
